Measurements from US20250275968A1, “INHIBITORS OF TAU PROTEINS” (DEUTSCHES ZENTRUM FÜR NEURODEGENERATIVE ERKRANKUNGEN E.V., priority 2022, published 2025).
Structures can show the parent of a compound that is named as a salt.

Legend:
[1] = test system: 2N4R tau; assay: In vitro seeded aggregation/fibrillization assay of 2N4R tau (ThT fluorescence); type: biochemical; conditions: tau:compound mole ratios 1:3 and 1:10
Protocol: Aggregation of 2N4R Tau was performed using a previously published co-factor-free aggregation protocol, with a few modifications (Reference: Chakraborty, P. et al. Co-factor-free aggregation of tau into seeding-competent RNA-sequestering amyloid fibrils. Nat. Commun. 12, 4231 (2021)). Aggregation experiments used the Tau protein stock prepared in 25 mM HEPES pH 7.4, 1 mM TCEP. Stocks of compounds were prepared in aggregation buffer (25 mM HEPES, 10 mM KCl, 5 mM MgCl2, pH 7.2) or in DMSO (10 mM compound).
To prepare the Tau fibril seeds by de novo aggregation, 2N4R Tau at a monomer concentration of 25 μM was diluted in aggregation buffer. The working concentration of TCEP in the aggregation mixture was <25 μM after dilution of the stock. To this mixture, Thioflavin T (ThT) was added to a final concentration of 50 μM. A total volume of 100 μL of the Tau-ThT mixture was incubated in a well of a 96-well microplate (Greiner Bio-one), in the presence of two polytetrafluoroethylene beads. The microplate was subjected to a program implemented in a Tecan Spark plate reader that involved incubating at 37° C., with intervals of double orbital shaking and ThT fluorescence emission measurement. The excitation wavelength for ThT was set as 430 nm and the emission wavelength was 485 nm. Details of this plate reader program were published previously (Reference: Chakraborty, P. et al. Co-factor-free aggregation of tau into seeding-competent RNA-sequestering amyloid fibrils. Nat. Commun. 12, 4231 (2021)). […] The fibril-containing mixture collected from the microplate served as a seeding mixture for the subsequent aggregation assays.
Seeded aggregation assays were performed as described above but with 1.0% of the well volume occupied by the seeding mixture sonicated for 1 minute. The assays were performed in the presence and absence of compounds, and working concentrations ranged from 0-250 μM compound.
Analyses of the fluorescence curves were performed using Graphpad PRISM version 8. Fluorescence data were fit to a sigmoid function. The number of hours corresponding to half-maximal ThT Fluorescence™ as well as the span of fluorescence intensity (Span) were determined for each sigmoid curve. Statistically significant differences were determined by one-way ANOVA analysis with Dunnett's multiple comparison test or unpaired t-test.

[2] = test system: 3R tau (tau^3R); assay: In vitro seeded aggregation assay of 3R tau (ThT fluorescence); type: biochemical; conditions: mole ratios 1:3 and 1:10
Protocol: Seeded aggregation assays were performed as described above but with 1.0% of the well volume occupied by the seeding mixture sonicated for 1 minute. The assays were performed in the presence and absence of compounds, and working concentrations ranged from 0-250 μM compound. Analyses of the fluorescence curves were performed using Graphpad PRISM version 8. Fluorescence data were fit to a sigmoid function. The number of hours corresponding to half-maximal ThT FluorescenceTM as well as the span of fluorescence intensity (Span) were determined for each sigmoid curve. Statistically significant differences were determined by one-way ANOVA analysis with Dunnett's multiple comparison test or unpaired t-test. The described seeded aggregation protocol was likewise applied to 3R Tau and the […]/[…] mutant of 2N4R Tau.

Compound: C=CC(=O)Nc1cc(Nc2nccc(-c3cn(C)c4ccccc34)n2)c(OC)cc1N(C)CCN(C)C [Osimertinib mesylate, N-[2-(2-Dimethylaminoethylmethylamino)-4-methoxy-5-[[4-(1-methylindol-3-yl)pyrimidin-2-yl]amino]phenyl]prop-2-enamide Mesylate Salt]
- inhibition of aggregation of tau^wt and tau^3R compared with cysteine-free tau^C291S,C322S [1]: more effectively inhibits
- normalized Span of ThT fluorescence [2]: statistically lower normalized Span values
- normalized Tm (midpoint of aggregation curve) [2]: do not show a clear dose-dependence
